This note sets out measurements from US20260376293A1, “METHODS FOR STUDYING GPR158 PHARMACOLOGY AND IDENTIFICATION OF ITS LIGANDS” (UNIVERSITY OF FLORIDA RESEARCH FOUNDATION, INCORPORATED, priority 2022, published 2026).

In this assay the target is T1, GPR158 Y269A mutant (Homo sapiens, UniProt Q5T848, Y269A).
T1 sequence (Q5T848 24-1215 Y269A): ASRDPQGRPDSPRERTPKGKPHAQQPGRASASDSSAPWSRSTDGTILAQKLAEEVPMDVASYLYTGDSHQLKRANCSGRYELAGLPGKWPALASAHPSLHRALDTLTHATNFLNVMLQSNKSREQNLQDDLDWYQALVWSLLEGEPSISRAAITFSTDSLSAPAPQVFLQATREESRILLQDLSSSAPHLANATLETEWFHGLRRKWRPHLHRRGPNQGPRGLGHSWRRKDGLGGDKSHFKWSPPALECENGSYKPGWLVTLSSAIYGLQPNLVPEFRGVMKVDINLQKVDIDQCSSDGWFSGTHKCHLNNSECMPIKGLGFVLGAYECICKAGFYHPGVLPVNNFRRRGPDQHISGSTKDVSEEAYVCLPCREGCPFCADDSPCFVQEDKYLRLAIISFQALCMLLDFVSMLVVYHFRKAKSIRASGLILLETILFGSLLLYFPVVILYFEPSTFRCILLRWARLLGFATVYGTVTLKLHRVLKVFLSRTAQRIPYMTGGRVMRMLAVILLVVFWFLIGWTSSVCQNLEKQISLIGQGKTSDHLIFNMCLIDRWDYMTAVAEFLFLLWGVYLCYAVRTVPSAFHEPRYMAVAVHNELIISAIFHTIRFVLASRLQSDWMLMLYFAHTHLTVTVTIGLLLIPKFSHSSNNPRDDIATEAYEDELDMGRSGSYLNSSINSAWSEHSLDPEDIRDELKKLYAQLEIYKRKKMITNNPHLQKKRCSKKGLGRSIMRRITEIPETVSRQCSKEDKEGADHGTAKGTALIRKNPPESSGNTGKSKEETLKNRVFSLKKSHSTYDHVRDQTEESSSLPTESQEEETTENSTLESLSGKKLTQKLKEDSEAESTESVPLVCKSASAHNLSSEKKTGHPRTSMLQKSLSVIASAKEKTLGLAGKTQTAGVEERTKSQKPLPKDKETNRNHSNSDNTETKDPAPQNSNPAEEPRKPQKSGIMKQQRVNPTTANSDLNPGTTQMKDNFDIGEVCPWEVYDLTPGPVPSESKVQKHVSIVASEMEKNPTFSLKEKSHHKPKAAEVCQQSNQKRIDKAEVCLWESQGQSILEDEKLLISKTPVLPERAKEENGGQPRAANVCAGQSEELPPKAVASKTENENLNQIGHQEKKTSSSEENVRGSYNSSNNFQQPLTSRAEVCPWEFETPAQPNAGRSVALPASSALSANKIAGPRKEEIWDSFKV
Kind of assay: Radioligand binding assay on GPR158 mutant Y269A. The text has this: FIGS. 11A-11G. Probing Cache domain of GPR158 as a ligand binding site A) Computational docking of glycine into putative ligand binding pocket on GPR158 Cache domain. Glycine and directly interacting residues are shown as sticks. Hydrogen bonds and van der Waals interactions are shown as dotted lines. B) Diagram showing interactions in the docked model of glycine against GPR158 Cache domain. Hydrogen bonds are shown as dashed lines, van der Waals interactions are shown as intersecting semicircles, and the secondary structural context of Ser266 and Tyr269 is shown as an arc. Dagger indicates a residue implicated in glycine binding in 11A. C) Radioligand binding assay of ^3H-glycine in cells expressing GPR158 mutants. Data shown mean±s.e.m. of 3 independent experiments, *p<0.05, ns=p>0.05 one-way ANOVA. D) Functional evaluation of GPR158 mutants in GAP BRET assay. Error bars are mean±s.e.m. of 3 independent experiments in triplicate. *p<0.05, **p<0.01, ***p<0.001, ****p<0.0001, ns=p>0.05, two-way ANOVA Columns with no fill (Ctrl), columns with angled-line fill (Glycine) E) Quantification of glycine inhibitory effect on kGAP normalized to the effect seen with WT receptor. […]
Whole cell binding was performed using cDNA of GPR158-venus or each GPR158-venus mutant or empty pcDNA3.1+ for ctrl cells. […] Finally radioactivity was measured using the liquid scintillation analyzer Tri-Carb 4910 TR.

SMILES strings stand for the structures.

With `NCC(=O)O` [^3H-glycine, [^3H]-glycine], the “[^3H]-glycine binding” value is “near complete loss”.
